Experimental findings from the supplement of paper PMC11208160 are described below.

This data set is described as follows: recombinant UMI read abundance after kanamycin selection (control-corrected) (log10(CPM+1)); higher = more efficient recombination; extreme values may be limits of the assay; sequences stand for … in AGTGCAGAGAAAATCGGCCAGTTTTCTCTGCCTGCAGTCCGCATGCCGTGGGACCCCTTGGGTTCTAACCTGTTGCCTAGATTTATGCAGCGGACTGCCTTTCTCCCAAAGTGATAAACCGG…AGGTTGGTTTCACT; site = the 11-nt donor. The protocol:
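Pooled E. coli donor-specificity screen for the IS621 bridge recombinase. Each library member carries a reprogrammed 11-nt donor and a full-length LE bridge RNA expressed in cis from the natural promoter, with a paired donor-binding loop (8-nt LDG + 4-nt RDG) and a target-binding loop fixed to T5. It is co-electroporated with a T5 target plasmid; recombinase is induced with 0.07 mM IPTG and recombinants are selected on kanamycin. UMIs are counted as CPM, averaged over two biological replicates and corrected by the unselected control. Molecule = full bridge RNA written as DNA, built from the T5 scaffold: LDG = donor specificity nt 1-8, RDG = reverse complement of nt 8-11.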
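Also: IS621 bridge recombinase in Escherichia coli cells against a fixed T5 target plasmid.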

Consider “AACCACGCATGGACCGGTTTTCCCGGTAATCCGTATTTGGG (site AAACACGCTCC)”, for which the “recombinant UMI read abundance (log10)” value was determined as 0.0131. As for “AACCACGCATGGACCGGTTTTCCCGGTAATCCGTATTTGGG (site AACCACGCTCC)”, the “recombinant UMI read abundance (log10)” value stood at 0.0319.

Consider “AACCACGCATGGACCGGTTTTCCCGGTAATCCGTATTTGGG (site AAGCACGCTCC)”, for which the “recombinant UMI read abundance (log10)” value was 0. Turning to “AACCACGCATGGACCGGTTTTCCCGGTAATCCGTATTTGGG (site AATCACGCTCC)”, the “recombinant UMI read abundance (log10)” value turned out to be 0.00485.

Regarding “AACCGTACATGGACCGGTTTTCCCGGTAATCCGTATTTGAT (site AACCGTACTAT)”, the “recombinant UMI read abundance (log10)” value stood at 1. Take “AACCGTACATGGACCGGTTTTCCCGGTAATCCGTATTTGAT (site AACCGTCCTAT)”: the “recombinant UMI read abundance (log10)” value was determined as 0.0158. With “AACCGTACATGGACCGGTTTTCCCGGTAATCCGTATTTGAT (site AACCGTGCTAT)”, the “recombinant UMI read abundance (log10)” value came out at 0.108.

For “AACCGTACATGGACCGGTTTTCCCGGTAATCCGTATTTGAT (site AACCGTTCTAT)”, the “recombinant UMI read abundance (log10)” value amounted to 0. With “AACCGTCCATGGACCGGTTTTCCCGGTAATCCGTATTTGAC (site AACCGTCCTAT)”, the “recombinant UMI read abundance (log10)” value came out at 0. Next, “AACCGTCCATGGACCGGTTTTCCCGGTAATCCGTATTTGAC (site AACCGTCCTCT)”: 0.0147; “AACCGTCCATGGACCGGTTTTCCCGGTAATCCGTATTTGAC (site AACCGTCCTGT)”: 0.786. As to “AACCGTCCATGGACCGGTTTTCCCGGTAATCCGTATTTGAC (site AACCGTCCTTT)”, the “recombinant UMI read abundance (log10)” value was 0.477.

On to “AACCGTCCATGGACCGGTTTTCCCGGTAATCCGTATTTGAG (site AACCGTCCTAT)”, for which the “recombinant UMI read abundance (log10)” value was 0.0112. To “AACCGTCCATGGACCGGTTTTCCCGGTAATCCGTATTTGAG (site AACCGTCCTCT)” belongs 0.0226. Consider “AACCGTCCATGGACCGGTTTTCCCGGTAATCCGTATTTGAG (site AACCGTCCTGT)”, for which the “recombinant UMI read abundance (log10)” value turned out to be 0.

On to “AACCGTCCATGGACCGGTTTTCCCGGTAATCCGTATTTGAG (site AACCGTCCTTT)”, for which the “recombinant UMI read abundance (log10)” value was determined as 0.00366.

For the sequence “AACCGTCCATGGACCGGTTTTCCCGGTAATCCGTATTTGAT (site AAACGTCCTAT)”, the “recombinant UMI read abundance (log10)” value worked out at 0.00674. As to “AACCGTCCATGGACCGGTTTTCCCGGTAATCCGTATTTGAT (site AACAGTCCTAT)”, the “recombinant UMI read abundance (log10)” value amounted to 0.0027. Regarding “AACCGTCCATGGACCGGTTTTCCCGGTAATCCGTATTTGAT (site AACCATCCTAT)”, the “recombinant UMI read abundance (log10)” value came out at 0.62.

As for “AACCGTCCATGGACCGGTTTTCCCGGTAATCCGTATTTGAT (site AACCCTCCTAT)”, the “recombinant UMI read abundance (log10)” value was found to be 0.00675. “AACCGTCCATGGACCGGTTTTCCCGGTAATCCGTATTTGAT (site AACCGACCTAT)”: the “recombinant UMI read abundance (log10)” value was 0. For the sequence “AACCGTCCATGGACCGGTTTTCCCGGTAATCCGTATTTGAT (site AACCGCCCTAT)”, the “recombinant UMI read abundance (log10)” value stood at 0.00356.

On to “AACCGTCCATGGACCGGTTTTCCCGGTAATCCGTATTTGAT (site AACCGGCCTAT)”, for which the “recombinant UMI read abundance (log10)” value was determined as 0.00769. On to “AACCGTCCATGGACCGGTTTTCCCGGTAATCCGTATTTGAT (site AACCGTACTAT)”, for which the “recombinant UMI read abundance (log10)” value is 0.0096.

“AACCGTCCATGGACCGGTTTTCCCGGTAATCCGTATTTGAT (site AACCGTCCTAA)”: the “recombinant UMI read abundance (log10)” value was 0.0165. To “AACCGTCCATGGACCGGTTTTCCCGGTAATCCGTATTTGAT (site AACCGTCCTAC)” belongs 0.0101; to “AACCGTCCATGGACCGGTTTTCCCGGTAATCCGTATTTGAT (site AACCGTCCTAG)”, 0; to “AACCGTCCATGGACCGGTTTTCCCGGTAATCCGTATTTGAT (site AACCGTCCTAT)”, 0.252. With “AACCGTCCATGGACCGGTTTTCCCGGTAATCCGTATTTGAT (site AACCGTCCTCT)”, the “recombinant UMI read abundance (log10)” value stood at 0.00582.

As for “AACCGTCCATGGACCGGTTTTCCCGGTAATCCGTATTTGAT (site AACCGTCCTGT)”, the “recombinant UMI read abundance (log10)” value was 0. For “AACCGTCCATGGACCGGTTTTCCCGGTAATCCGTATTTGAT (site AACCGTCCTTT)”, the “recombinant UMI read abundance (log10)” value is 0.0201. As to “AACCGTCCATGGACCGGTTTTCCCGGTAATCCGTATTTGAT (site AACCGTGCTAT)”, the “recombinant UMI read abundance (log10)” value was found to be 0.0154.

Consider “AACCGTCCATGGACCGGTTTTCCCGGTAATCCGTATTTGAT (site AACCGTTCTAT)”, for which the “recombinant UMI read abundance (log10)” value amounted to 0.00303.

Turning to “AACCGTCCATGGACCGGTTTTCCCGGTAATCCGTATTTGAT (site AACCTTCCTAT)”, the “recombinant UMI read abundance (log10)” value was found to be 0.0119. For “AACCGTCCATGGACCGGTTTTCCCGGTAATCCGTATTTGAT (site AACGGTCCTAT)”, the “recombinant UMI read abundance (log10)” value worked out at 0.00654. Turning to “AACCGTCCATGGACCGGTTTTCCCGGTAATCCGTATTTGAT (site AACTGTCCTAT)”, the “recombinant UMI read abundance (log10)” value turned out to be 0.00892. Next, “AACCGTCCATGGACCGGTTTTCCCGGTAATCCGTATTTGAT (site AAGCGTCCTAT)”: 0; “AACCGTCCATGGACCGGTTTTCCCGGTAATCCGTATTTGAT (site AATCGTCCTAT)”: 0.0138; “AACCGTCCATGGACCGGTTTTCCCGGTAATCCGTATTTGAT (site ACCCGTCCTAT)”: 0. For “AACCGTCCATGGACCGGTTTTCCCGGTAATCCGTATTTGAT (site AGCCGTCCTAT)”, the “recombinant UMI read abundance (log10)” value turned out to be 0.0654. As to “AACCGTCCATGGACCGGTTTTCCCGGTAATCCGTATTTGAT (site ATCCGTCCTAT)”, the “recombinant UMI read abundance (log10)” value was 0.00558. Next, “AACCGTCCATGGACCGGTTTTCCCGGTAATCCGTATTTGAT (site CACCGTCCTAT)”: 0.00991. To “AACCGTCCATGGACCGGTTTTCCCGGTAATCCGTATTTGAT (site GACCGTCCTAT)” belongs 0.00938; to “AACCGTCCATGGACCGGTTTTCCCGGTAATCCGTATTTGAT (site TACCGTCCTAT)”, 0.0405.

“AACCGTGCATGGACCGGTTTTCCCGGTAATCCGTATTTGAT (site AACCGTACTAT)”: the “recombinant UMI read abundance (log10)” value was 0.902.

Regarding “AACCGTGCATGGACCGGTTTTCCCGGTAATCCGTATTTGAT (site AACCGTCCTAT)”, the “recombinant UMI read abundance (log10)” value was 0.0261. In the case of “AACCGTGCATGGACCGGTTTTCCCGGTAATCCGTATTTGAT (site AACCGTGCTAT)”, the “recombinant UMI read abundance (log10)” value was 1.37. As for “AACCGTGCATGGACCGGTTTTCCCGGTAATCCGTATTTGAT (site AACCGTTCTAT)”, the “recombinant UMI read abundance (log10)” value was 0. To “AACCTAGCATGGACCGGTTTTCCCGGTAATCCGTATTTGTT (site AACCTAGCTAA)” belongs 0.0287; to “AACCTAGCATGGACCGGTTTTCCCGGTAATCCGTATTTGTT (site ACCCTAGCTAA)”, 0.542; to “AACCTAGCATGGACCGGTTTTCCCGGTAATCCGTATTTGTT (site AGCCTAGCTAA)”, 0.024. Next, “AACCTAGCATGGACCGGTTTTCCCGGTAATCCGTATTTGTT (site ATCCTAGCTAA)”: 0.0182; “AACCTCCCATGGACCGGTTTTCCCGGTAATCCGTATTTGGC (site AACCTCCCTGC)”: 0. In the case of “AACCTTCCATGGACCGGTTTTCCCGGTAATCCGTATTTGCC (site AACCTTCCTGG)”, the “recombinant UMI read abundance (log10)” value came to 0. “AACGAAACATGGACCGGTTTTCCCGGTAATCCGTATTTGCC (site AACGAAACTGG)”: the “recombinant UMI read abundance (log10)” value stood at 2.4. Next, “AACGGGGCATGGACCGGTTTTCCCGGTAATCCGTATTTGCG (site AACGGGGCTCG)”: 1.19; “AACGGTACATGGACCGGTTTTCCCGGTAATCCGTATTTGGG (site AACGGTACTCC)”: 0.0069; “AACGTGTCATGGACCGGTTTTCCCGGTAATCCGTATTTGAC (site AAAGTGTCTGT)”: 0. “AACGTGTCATGGACCGGTTTTCCCGGTAATCCGTATTTGAC (site AACGTGTCTGT)”: the “recombinant UMI read abundance (log10)” value was determined as 0. With “AACGTGTCATGGACCGGTTTTCCCGGTAATCCGTATTTGAC (site AAGGTGTCTGT)”, the “recombinant UMI read abundance (log10)” value turned out to be 0. As to “AACGTGTCATGGACCGGTTTTCCCGGTAATCCGTATTTGAC (site AATGTGTCTGT)”, the “recombinant UMI read abundance (log10)” value worked out at 0. Regarding “AACTCAGCATGGACCGGTTTTCCCGGTAATCCGTATTTGTA (site AACTCAGCTTA)”, the “recombinant UMI read abundance (log10)” value worked out at 1.62.

In the case of “AACTCCGCATGGACCGGTTTTCCCGGTAATCCGTATTTGAC (site AACTCCGCTGT)”, the “recombinant UMI read abundance (log10)” value was 1.92. For “AACTCCTCATGGACCGGTTTTCCCGGTAATCCGTATTTGCC (site AACTCCTCTGG)”, the “recombinant UMI read abundance (log10)” value came out at 1.8.

On to “AACTCCTCATGGACCGGTTTTCCCGGTAATCCGTATTTGCC (site CACTCCTCTGG)”, for which the “recombinant UMI read abundance (log10)” value came out at 2.43.
